# Calls of active or inactive are those of the source. The calls are words filed in the database; no cut-off is given here. Residues, ends and D or L forms follow the SMILES beside them.
# Legend:
# N9 [1] = test: Inhibition of NLRP3 inflammasome activation mediated pyroptosis in LPS/ATP-stimulated mouse N9 cells assessed as reduction in cell death measured after 24 hrs by MTT assay; assay type: cell-based; conditions: dose 5-30 µM
# N9 [2] = test: Inhibition of NLRP3 inflammasome activation in LPS/ATP-stimulated mouse N9 cells assessed as inhibition of ASC speck formation at 20 to 30 uM preincubated with LPS for 4 hrs followed by compound addition by 30 mins and measured after 45 mins of ATP stimulation by DAPI staining based immunofluorescence analysis; assay type: cell-based; conditions: dose 20-30 µM, time 75.0 min
# N9 [3] = test: Inhibition of NLRP3 inflammasome activation mediated mitochondrial damage in LPS/ATP-stimulated mouse N9 cells assessed as normal tubular structure of mitochondria at 10 to 20 uM by […] staining based confocal microscopic analysis; conditions: dose 10-20 µM
# [4] = target: Apoptosis-associated speck-like protein containing a CARD (Homo sapiens, UniProt Q9ULZ3); test: Binding affinity to Alexa647-labeled ASC (unknown origin) assessed as dissociation constant incubated for 5 mins by fluorescence spectra based analysis
# Apoptosis-associated speck-like protein containing a CARD, sequence (Q9ULZ3 whole entry): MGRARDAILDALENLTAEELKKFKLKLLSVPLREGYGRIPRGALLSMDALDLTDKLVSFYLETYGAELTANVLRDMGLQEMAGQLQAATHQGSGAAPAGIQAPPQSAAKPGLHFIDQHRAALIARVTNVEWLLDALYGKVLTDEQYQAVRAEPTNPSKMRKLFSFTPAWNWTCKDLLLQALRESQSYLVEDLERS
# N9 [5] = test: Inhibition of NLRP3 inflammasome activation in LPS/ATP-stimulated mouse N9 cells assessed as increase in intracellular chloride level at 5 to 30 uM preincubated with LPS for 4 hrs followed by compound addition for 30 mins and measured after ATP stimulation for 45 mins by MQAE dye based analysis; assay type: cell-based; conditions: dose 5-30 µM, time 75.0 min
# N9 [6] = test: Inhibition of NLRP3 inflammasome activation mediated pyroptosis in LPS/amyloid-beta-stimulated mouse N9 cells assessed as reduction in cell death at 5 to 30 uM by MTT assay; assay type: cell-based; conditions: dose 5-30 µM
# N9 [7] = test: Inhibition of NLRP3 inflammasome activation mediated pyroptosis in LPS/alpha-synuclein-stimulated mouse N9 cells assessed as reduction in cell death at 5 to 30 uM by MTT assay; assay type: cell-based; conditions: dose 5-30 µM
# N9 [8] = test: Inhibition of NLRP3 inflammasome activation mediated in LPS/tau-stimulated mouse N9 cells assessed as increase in mitochondrial membrane potential by flow cytometric analysis; assay type: cell-based; conditions: dose 5-30 µM
# N9 [9] = test: Inhibition of NLRP3 inflammasome activation mediated in LPS/amyloid-beta-stimulated mouse N9 cells assessed as increase in mitochondrial membrane potential by flow cytometric analysis; assay type: cell-based; conditions: dose 5-30 µM
# N9 [10] = test: Inhibition of NLRP3 inflammasome activation in LPS/tau-stimulated mouse N9 cells assessed as reduction in IL-1beta secretion at 10 to 20 uM preincubated with LPS for 4 hrs followed by compound addition for 30 mins and measured after tau stimulation for 24 hrs by ELISA; assay type: cell-based; conditions: dose 10-20 µM, time 24.5 hrs
structure (smiles),measurement,setting,value
CC[C@H](C)[C@H](NC(=O)[C@H](C)NC(=O)[C@H](C)NC(=O)[C@H](CC(C)C)NC(=O)[C@@H](NC(=O)[C@H](Cc1c[nH]c2ccccc12)NC(=O)[C@@H](N)C(C)C)[C@@H](C)CC)C(=O)N[C@@H](CC(N)=O)C(=O)N[C@@H](CCCNC(=N)N)C(=O)N[C@@H](CCCNC(=N)N)C(=O)O (H-VWILAAINRR-OH),inhibition,N9 [1],Dose-dependent-effect
same,inhibition,N9 [2],Active
same,inhibition,N9 [3],Active
same,Kd,[4],58 nM
same,inhibition,N9 [5],Active
same,inhibition,N9 [6],Active
same,inhibition,N9 [7],Active
same,inhibition,N9 [8],Dose-dependent-effect
same,inhibition,N9 [9],Dose-dependent-effect
same,inhibition,N9 [10],Dose-dependent-effect

# — ChEMBL document CHEMBL6121055, “Strategic Mutations in Designer Native Peptides Combat NLRP3 Inflammasome Activation in Neurodegenerative Disorders” (J Med Chem, 2025)
